Data published in patent US20150352111A1, “Therapeutic Indications of Kinase Inhibitors” (Pulmokine, Inc., priority 2013, published 2015).
Where “and” joins values, the source holds several entries; their conditions need not be identical. Identical values can stand only once. Entries after “also recorded” stand apart in the source; their conditions may differ. Marks after values point to notes of the source that are not given here.

Key:
PDGFR alpha receptor = molecular target: T1, PDGFR alpha receptor (Homo sapiens, UniProt P16234); assay: Z-lyte in vitro kinase assay (Invitrogen Select Screen); format: biochemical; conditions: ATP Km
T1 construct: purchased Invitrogen (Select Screen service)
T1 sequence (P16234 24-1089): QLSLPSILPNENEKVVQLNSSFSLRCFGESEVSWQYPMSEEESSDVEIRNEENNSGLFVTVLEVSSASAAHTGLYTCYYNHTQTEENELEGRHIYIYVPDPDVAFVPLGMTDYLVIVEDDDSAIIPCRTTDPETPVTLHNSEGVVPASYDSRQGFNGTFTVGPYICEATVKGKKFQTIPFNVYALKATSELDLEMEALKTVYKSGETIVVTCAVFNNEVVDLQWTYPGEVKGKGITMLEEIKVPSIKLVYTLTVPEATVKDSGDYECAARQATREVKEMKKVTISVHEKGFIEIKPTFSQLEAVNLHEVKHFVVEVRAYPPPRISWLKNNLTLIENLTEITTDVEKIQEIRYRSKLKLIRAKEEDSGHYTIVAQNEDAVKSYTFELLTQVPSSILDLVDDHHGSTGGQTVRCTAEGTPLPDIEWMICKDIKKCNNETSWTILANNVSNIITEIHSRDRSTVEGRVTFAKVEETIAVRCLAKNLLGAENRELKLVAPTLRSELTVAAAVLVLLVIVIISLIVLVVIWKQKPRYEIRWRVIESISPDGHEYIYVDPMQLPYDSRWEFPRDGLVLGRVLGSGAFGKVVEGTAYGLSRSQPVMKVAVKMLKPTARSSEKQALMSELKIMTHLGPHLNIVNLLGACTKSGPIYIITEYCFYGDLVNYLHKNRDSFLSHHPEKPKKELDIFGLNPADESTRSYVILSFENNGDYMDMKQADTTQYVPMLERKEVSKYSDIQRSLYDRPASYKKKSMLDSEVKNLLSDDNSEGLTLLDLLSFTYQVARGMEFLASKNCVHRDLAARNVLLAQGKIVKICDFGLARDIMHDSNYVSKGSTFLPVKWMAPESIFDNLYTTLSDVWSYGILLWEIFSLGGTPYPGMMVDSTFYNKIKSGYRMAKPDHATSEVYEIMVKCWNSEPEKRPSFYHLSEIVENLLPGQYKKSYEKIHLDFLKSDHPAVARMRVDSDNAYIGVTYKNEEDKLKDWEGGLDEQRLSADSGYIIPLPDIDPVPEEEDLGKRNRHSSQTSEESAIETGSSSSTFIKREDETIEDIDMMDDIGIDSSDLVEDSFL

[1] = Systemic blood pressure study in ambulatory MCT treated rats; format: in vivo, rat; conditions: inhaled
Experimental: Systemic Blood Pressure Study.
The effect of PK10453 on systemic BP was studied in ambulatory MCT treated rats with DSI PAC40 transmitters implanted in the descending aorta. Three weeks after administration of MCT 60 mg/kg IP, animals inhaled PK10453 or vehicle three times/day with 4 minute exposure each dose for 7 days. Blood pressure was recorded before each morning dose.

rat MCT+PN model of PAH [2] = assay: Telemetry study of PA pressure in the rat MCT+PN model; format: in vivo
Experimental: Efficacy Study in the Rat MCT+PN Model.
Pneumonectomy and implantation of a TRM53P telemetry monitor in the pulmonary artery (Telemetry Research, New Zealand and ADInstruments, Colorado) was carried out in rats. Two weeks after MCT, PK10453 was administered three times daily for 1 week. Dosing was begun 2 weeks after MCT rather than 3 weeks, because in this more aggressive model the animals developed PAH more quickly and developed distress sooner than in MCT only treated animals (Pulmokine unpublished data). The two groups underwent 4 minute exposures of either the vehicle control or PK10453. Sampling of PA pressure was performed 5 minutes before each morning dose in ambulatory animals in room air (est. pressure 716 mm Hg based on elev. of animal facility).

[3] = Pharmacokinetic study, IV vs inhalation, lung and plasma; format: in vivo, rat; conditions: for AUC: rat
Experimental: PK10453 was administered intravenously or by inhalation to animals, which were then euthanized at time 0, 10, 20, and 60 minutes (n=3 each time point). Blood samples were taken by cardiac puncture, and the lungs excised. The lungs were homogenized and PK10453 extracted with a 1:3 mixture of acetonitrile:methanol. Similarly, plasma was extracted with a 1:3 mixture of acetonitrile:methanol. Drug was assayed by LC MS/MS (PharmOptima Inc., Portage Mich.). First order exponential curves were fit to the data with Excel. The AUC was determined with the trapezoidal method of integration.
For the pharmacokinetic study, the concentration of PK10453 in lung when administered by inhalation was compared to the concentration achieved with IV administration. As described in Morén “Aerosols in medicine: principles, diagnosis, and therapy.” Amsterdam; New York: Elsevier. xx, 429 (1993) and Phalen et al., “Inhalation exposure methodology.” Environ Health Perspect 56:23-34 (1984)), it is possible to estimate the pharmacokinetic advantage of inhalation relative to intravenous administration, Rd, by comparing the areas under the curve (AUC) of a plot of the drug concentration as a function of time following respiratory and intravenous (IV) administration:
Rd=[(AUClung/AUCplasma)respiratory]/[(AUClung/AUCplasma)IV]

[4] = Fluorescent imaging of lung distribution of inhaled drug with IR780 tracer; format: in vivo, rat; conditions: inhalation with IR780 tracer, 2 min exposure
Experimental: The spatial distribution of inhaled PK10453 in the lung was evaluated by fluorescent imaging. For this study, a near IR fluorescent tracer, IR-780, was added to the drug solution in the nebulizer. In this way, the dried aerosol particles contained both the drug and IR tracer. After a two minute exposure, animals were placed under general anesthesia underwent intubation via tracheostomy, and the lungs were excised. OCT/PBS was infused via the pulmonary artery, the lung insufflated with air, and the lungs frozen in the vapor phase of liquid nitrogen. Serial approximate 2 mm sections of the lung were made and imaged on a Licor Odyssey Imager.

rat MCT+PN model of PAH [5] = assay: Histology and morphometric analysis of pulmonary arterioles, MCT+PN model; format: in vivo
Text: Histology and Morphometric Analysis.
At the end of the study, the heart and lungs were removed from ventilated animals under general anesthesia. Heparinized saline was infused under pressure through the main pulmonary artery. The right upper lobe was immediately tied off and placed in liquid nitrogen for Western blot and NanoPro 100 assay analysis. The heart was removed, and the RV free wall, interventricular septum and LV free wall dissected and weighed. Buffered formalin (10%) was infused under pressure both through the pulmonary artery and the trachea. Morphometric analysis was performed on H&E stained formalin fixed tissue sectioned at 8 μm. The media area and lumen area of pulmonary arterioles were measured with Image J software by a technician blinded to treatment group. Measurements were made on 20 pulmonary arterioles per section. The ratio of the lumen area to the total media area was determined. This ratio normalizes the variation in total pulmonary arteriole area.

[6] = test system: Human pulmonary artery smooth muscle cells; assay: PASMC proliferation assay (Cyquant NF); format: cell-based; conditions: PDGF BB 50 ng/ml, 24 hours, read-out: IC50, PDGF BB stimulated human PA SMC proliferation
Experimental: PASMC Proliferation Assay.
Human pulmonary artery smooth muscle cells were obtained from Cell Applications (San Diego, Calif.) and grown to 50% confluence in a 96 well format. The cells were switched to serum free media 24 hours prior to stimulation with PDGF BB 50 ng/ml and varying concentrations of PK10453. After 24 hours of treatment, a Cyquant NF Cell proliferation assay was performed (Invitrogen®), and the fluorescent signal was measured with a Cytofluor Plate reader. Data is based on an avg. of 8 replicates at each conc.

[7] = Body weight, MCT+PN model (FIG. 11); format: in vivo, rat; conditions: treated vs. vehicle groups
Text: FIG. 11 is a graphic representation of subject body weight in vehicle administered and PK10453 treated subjects, where squares indicate vehicle treated (n=10), triangles indicate PK10453 D4 group (n=10), and diamonds indicate PK10453 D8 group (n=6).

rat MCT model of PAH = assay: Efficacy study in the rat MCT model; format: in vivo
Experimental: Efficacy Study in the Rat MCT Model.
Male Sprague Dawley rats received MCT 60 mg/kg IPMCT, and after 3 weeks, PK10453 or vehicle control were administered by inhalation. Four groups were studied: vehicle control (4 min exposure) and three treatment groups of PK10453 with exposure times 2 minutes (D2), 4 minutes (D4), or 8 minutes (D8) three times a day. These regimens were administered for two weeks. The vehicle consisted of aerosolized IM tosylic acid neutralized with ammonia vapor as described above. The pH of a solution prepared by dissolving captured aerosol particles in water was measured for every dose and was consistently in the range of 5.5-6.0. At the end of the study, the RV systolic pressure (RVSP) was measured, and the heart chambers dissected and weighed.

PDGFR beta receptor = PDGFR beta receptor (Homo sapiens, UniProt P09619); assay: Z-lyte in vitro kinase assay (Invitrogen Select Screen); format: biochemical; conditions: ATP Km
Sequence of PDGFR beta receptor (P09619 33-1106): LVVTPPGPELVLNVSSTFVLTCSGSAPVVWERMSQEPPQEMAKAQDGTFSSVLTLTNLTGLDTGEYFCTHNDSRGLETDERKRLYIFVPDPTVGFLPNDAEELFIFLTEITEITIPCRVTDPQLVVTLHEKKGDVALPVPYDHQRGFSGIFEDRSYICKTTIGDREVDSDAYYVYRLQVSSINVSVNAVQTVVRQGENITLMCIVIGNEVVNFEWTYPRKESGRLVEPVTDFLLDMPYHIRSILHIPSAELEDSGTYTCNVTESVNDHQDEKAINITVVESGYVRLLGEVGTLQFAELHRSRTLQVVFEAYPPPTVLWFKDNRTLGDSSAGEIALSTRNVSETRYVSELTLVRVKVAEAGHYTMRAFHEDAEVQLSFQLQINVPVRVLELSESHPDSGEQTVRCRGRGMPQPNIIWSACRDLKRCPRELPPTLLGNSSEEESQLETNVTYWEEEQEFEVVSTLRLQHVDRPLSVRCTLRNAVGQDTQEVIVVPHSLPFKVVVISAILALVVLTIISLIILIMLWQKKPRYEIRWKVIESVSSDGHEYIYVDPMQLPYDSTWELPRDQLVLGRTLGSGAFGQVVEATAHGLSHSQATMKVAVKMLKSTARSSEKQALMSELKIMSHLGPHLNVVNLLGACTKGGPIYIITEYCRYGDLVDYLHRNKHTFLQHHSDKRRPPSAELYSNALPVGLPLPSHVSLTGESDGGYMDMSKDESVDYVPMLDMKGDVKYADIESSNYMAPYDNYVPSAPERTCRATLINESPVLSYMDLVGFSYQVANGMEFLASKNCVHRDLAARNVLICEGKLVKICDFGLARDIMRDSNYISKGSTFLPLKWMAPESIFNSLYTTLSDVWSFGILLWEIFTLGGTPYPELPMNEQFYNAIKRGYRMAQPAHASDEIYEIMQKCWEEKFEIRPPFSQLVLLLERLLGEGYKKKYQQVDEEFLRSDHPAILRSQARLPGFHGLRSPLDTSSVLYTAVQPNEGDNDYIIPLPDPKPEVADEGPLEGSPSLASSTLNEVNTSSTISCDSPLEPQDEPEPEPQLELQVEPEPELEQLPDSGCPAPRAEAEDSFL
Experimental: In Vitro Kinase Assay. A Z-lyte kinase assay was performed to determine the inhibition of PDGFRalpha and PDGFRbeta mediated phosphorylation by PK10453. Ten point titration curves were modeled to calculate the IC50 (Invitrogen Select Screen®).

[8] = test system: phospho-ERK1/2 and total ERK1/2; assay: NanoPro immunoassay of lung homogenates, MCT+PN model; format: in vivo, rat; conditions: D4 and D8 groups compared to vehicle
Experimental: (§1) NanoPro Immunoassay. Relative differences in phosphorylated ERK1/2 and STAT isoforms were measured with a NanoPro100® immunoassay system (Protein Simple/Cell Biosciences, CA). See Fan et al., “Nanofluidic proteomic assay for serial analysis of oncoprotein activation in clinical specimens.” Nat Med 15:566-571 (2009).

[9] = Two chamber plethysmography, rat MCT+PN model; format: in vivo; conditions: for TV / MV: MCT+PN, mean
Experimental: Plethysmography was performed with an EMKA dual chamber plethysmograph and IOX software. Parameters measured included breathing frequency, tidal volume, minute ventilation, peak inspiratory and expiratory flow, and airway resistance (SRaw). Animals were acclimatized to the plethysmograph for three days prior to first data acquisition. Measurements were made prior to the first dose of drug and at the study's end.

pSTAT3/STAT3 = assay: NanoPro immunoassay of lung extracts, MCT+PN model; format: in vivo, rat; conditions: D4 and D8 groups compared to vehicle
Experimental: as §1

rat MCT+PN model of PAH [10] = assay: Rat MCT+PN model efficacy: PV loops, RV hypertrophy; format: in vivo; conditions: for HR / EF / ESP / CO / EDP / EDV / ESV / SV / SW: MCT+PN, mean, n=4; for EF / ESP: RV
Experimental: In a separate cohort of animals, the MCT+PN model was developed as described above, and PK10453 was then administered for 4 minutes or 8 minutes three times a day to the drug treated group. The vehicle control group underwent 4 minute exposures three times a day. Pressure Volume (PV) loops were obtained with an admittance system (Scisense, Inc.) after 14 days of treatment, while rats were under general anesthesia with isoflurane and 100% FiO2.
PV loop study. The RV end systolic pressure (ESP) was lower and the RV ejection fraction (EF) was higher in both the D4 and D8 treatment groups compared to vehicle control. Cardiac output in the D8 group was increased compared to the Vehicle group. The study animals underwent left pneumonectomy followed 7 days later by MCT 60 mg/kg IP. Two weeks after MCT administration, PK10453 or vehicle were given by inhalation three times a day for two weeks. PV loops were acquired at the end of this period. With respect to Table 3: V=vehicle; D4=4 minute inhalation PK10453; D8=8 minute inhalation PK10453; n=4 each group; *p<0.001; **p≦0.01; §p<0.05 vs. V.

COc1cc(-c2cncc(N[C@@H](C)c3cccc(NC(=O)c4cncc(C)c4)c3)n2)ccc1O [PK10453, (S)—N-(3-(1-((6-(4-hydroxy-3-methoxyphenyl)pyrazin-2yl)amino)ethyl)phenyl)-5-methylnicotinamide]
IC50 (PDGFR alpha receptor): 21 nM | effect on systemic blood pressure [1]: did not have an adverse effect; also recorded: no significant effect | PA systolic pressure (rat MCT+PN model of PAH [2]; 4 min exposure 3x/day, after five days of treatment): 47.3±3.0 mm Hg | PA systolic pressure (rat MCT+PN model of PAH [2]; 4 min exposure 3x/day, treatment day 8): 47.3±4.9 mm Hg | PA systolic pressure (rat MCT+PN model of PAH [2]; day 0 prior to start of treatment): 43.1±3.5 mm Hg | A of Y = AEXP(-bX) ([3]; Lung (INH)): 2498 ng/g lung | b of Y = AEXP(-bX) ([3]; Lung (INH)): 0.03 min⁻¹ | A of Y = AEXP(-bX) ([3]; Lung (IV)): 440 ng/g lung | b of Y = AEXP(-bX) ([3]; Lung (IV)): 0.06 min⁻¹ | A of Y = AEXP(-bX) ([3]; Plasma (INH)): 132.7 ng/g lung | b of Y = AEXP(-bX) ([3]; Plasma (INH)): 0.07 min⁻¹ | A of Y = AEXP(-bX) ([3]; Plasma (IV)): 1260 ng/g lung | b of Y = AEXP(-bX) ([3]; Plasma (IV)): 0.07 min⁻¹ | Rd, pharmacokinetic advantage of inhalation relative to IV ([3]; [(AUClung/AUCplasma)respiratory]/[(AUClung/AUCplasma)IV]): 44.6 fold and 45 fold and 44.58 fold | AUC ([3]; inhaled, Plasma (INH)): 65.5 ng·h/mL | AUC ([3]; Plasma (IV)): 617 ng·h/mL | fluorescence intensity distribution in lung sections [4]: well distributed throughout the lungs | lumen area to media area ratio (L/M) (rat MCT+PN model of PAH [5]; D4): 0.75±0.14 | lumen area to media area ratio (L/M) (rat MCT+PN model of PAH [5]; D8): 1.17±0.07 | IC50 [6]: < 500 nM | body weight [7]: trend to a slower rate of decline | RVSP (rat MCT model of PAH; D2, 2 min inhalation three times a day, two weeks): 51.4±6.5 mm Hg | reduction in RVSP compared to vehicle (rat MCT model of PAH; D4): 44% | RVSP (rat MCT model of PAH; D4, 4 min inhalation three times a day, two weeks): 44.4±3.8 mm Hg | reduction in RVSP compared to vehicle (rat MCT model of PAH; D8): 54% | RVSP (rat MCT model of PAH; D8, 8 min inhalation three times a day, two weeks): 37.1±4.5 mm Hg | decrease of RV systolic pressure (rat MCT model of PAH; inhaled, dose group not stated): 50% | RV hypertrophy, ratio (RV+IVS)/LV weight (rat MCT model of PAH; inhaled, two weeks): significant reduction | IC50 (PDGFR beta receptor): 15 nM | pERK1/ERK1 [8]: significant reductions | ppERK1/ERK1 [8]: significant reductions | TV ([9]; D4, Day1, prior to first dose): 1.00 mL | MV ([9]; D4, Day15): 176.12§ ml/min | TV ([9]; D4, Day15): 0.85 mL | TV ([9]; D8, Day1, prior to first dose): 0.74 mL | MV ([9]; D8, Day15): 128.49 mL/min | TV ([9]; D8, Day15): 0.63 mL | effect on lung function ([9]; inhaled, 2 wk administration course): did not appear to adversely affect; also recorded: no adverse effect | pSTAT3/STAT3 ratio (pSTAT3/STAT3): significant reduction | RVSP (rat MCT+PN model of PAH [10]; D4 MCT+PN group (n=4)): 43.2±6.1 mm Hg | RVSP (rat MCT+PN model of PAH [10]; D8 MCT+PN group (n=4)): 38.4±1.4 mm Hg | HR (rat MCT+PN model of PAH [10]; D4, 4 minute inhalation 3x/day, two weeks): 288 bpm | EF (rat MCT+PN model of PAH [10]; D4): 65.4** | ESP (rat MCT+PN model of PAH [10]; D4): 43.20* mm Hg | CO (rat MCT+PN model of PAH [10]; D4): 77.59 mL/min | EDP (rat MCT+PN model of PAH [10]; D4): 2.62§ mm Hg | EDV (rat MCT+PN model of PAH [10]; D4): 408.95 µL | ESV (rat MCT+PN model of PAH [10]; D4): 144.14 µL | SV (rat MCT+PN model of PAH [10]; D4): 264.81 µL | SW (rat MCT+PN model of PAH [10]; D4): 9818 | HR (rat MCT+PN model of PAH [10]; D8, 8 minute inhalation 3x/day, two weeks): 315 bpm | EF (rat MCT+PN model of PAH [10]; D8): 67.1** | ESP (rat MCT+PN model of PAH [10]; D8): 38.44* mm Hg | CO (rat MCT+PN model of PAH [10]; D8): 105.1** ml/min | EDP (rat MCT+PN model of PAH [10]; D8): 4.87 mm Hg | EDV (rat MCT+PN model of PAH [10]; D8): 488.68 µL | ESV (rat MCT+PN model of PAH [10]; D8): 155.40 µL | SV (rat MCT+PN model of PAH [10]; D8): 333.28** μl | SW (rat MCT+PN model of PAH [10]; D8): 5481 | RV hypertrophy (rat MCT+PN model of PAH [10]; rat MCT+PN, inhaled, two weeks): significant decrease
